Laboratory results taken from US4022903A, “α-Thienyl and α-substituted thienyl, phenyl and substituted phenyl cyclopropylomethanols useful as biodegradable insecticides and mollusicides” (Abbott Laboratories, priority 1975, dated 1977).

Experiments:
Mice oral LD 50 = conditions: mouse, in vivo, orally
Adult snails = test: Molluscicide activity, adult snails; assay type: in vivo; conditions: 0/10-2/10 inactive, 3/10-7/10 partially active, 8/10-10/10 active
[1] = tested on: newly hatched snails of the strain B. glabrata; test: Molluscicide activity, newly hatched snails; assay type: in vivo; conditions: 24 hours, 26° C, 0/10-2/10 inactive, 3/10-7/10 partially active, 8/10-10/10 active
mites = test: Leaf Disc Mite Assay; assay type: in vivo; conditions: 48 hours, adult mites
Method: A stock solution of 50,000 ppm is prepared. The solution consists of 25 percent DMF, 75 percent IPA and approximately 4 percent Tween 20. The stock solution is diluted (1:20) to a concentration of 2500 ppm using as a diluent 70 percent acetone containing 0.1 percent Tween 20. The 2500 ppm solution is used for the initial screen.
Leaf discs 15 mm in diameter are cut from fresh Henderson Bush Lima Bean plants. Discs are then dropped in the appropriate dilution of the chemical being tested.
The leaf discs are allowed to dry and then placed on moistened filter paper in appropriately labeled petri dishes. Ten adult mites are placed on each disc. Nine discs are used for each compound. Percent mortality is determined after 48 hours.
When a compound is rated very active, 1:10 dilutions are made of the 2500 stock.

| Molecule | LD50 (Mice oral LD 50) | Molluscicide, mortality, Adult (Adult snails; 1 ppm) | Molluscicide, mortality, Adult (Adult snails; 10 ppm) | Molluscicide, mortality, New ([1]; 1 ppm) | Molluscicide, mortality, New ([1]; 10 ppm) | Mites, percent mortality (activity rating) (mites; 500 ppm) | Mites, percent mortality (activity rating) (mites; 2500 ppm) |
| --- | --- | --- | --- | --- | --- | --- | --- |
| OC(c1ccc(F)cc1)(c1ccc(Cl)s1)C1CC1 (stereo not drawn) [compound 9] | > 300 mg/kg | 0/10 | 9/10 | 5/10 | 10/10 |  |  |
| OC(c1ccc(Cl)cc1)(c1ccc(Cl)s1)C1CC1 (stereo not drawn) [compound 4] |  | 0/10 | 9/10 | 7/10 | 10/10 | A (50-80 percent mortality is rated active (A)) | VA (80-100 percent mortality are rated very active (VA)) |
| OC(c1ccc(C(F)(F)F)cc1)(c1ccc(Cl)s1)C1CC1 (stereo not drawn) [compound 5] | > 1000 mg/kg | 1/10 | 0/10 | 8/10 | 10/10 | A (50-80 percent mortality is rated active (A)) | VA (80-100 percent mortality are rated very active (VA)) |
| Cc1ccc(C(O)(c2ccc(Cl)s2)C2CC2)cc1 (stereo not drawn) [compound 7] | > 1000 mg/kg | 0/10 | 9/10 | 4/10 | 10/10 |  |  |
| OC(c1ccc(Br)cc1)(c1ccc(Cl)s1)C1CC1 (stereo not drawn) [compound 8] |  | 3/10 | 9/10 | 10/10 | 10/10 |  | VA (80-100 percent mortality are rated very active (VA)) |
| α-(5-Chloro-2-Thienyl)4-Chlorophenylcyclopropylmethanol [No. 4] |  | 0/10 | 0/10 | 0/10 | 0/10 |  |  |
| OC(c1ccc(C(F)(F)F)cc1)(c1cccs1)C1CC1 (stereo not drawn) [compound 2] |  | 0/10 | 6/10 | 4/10 | 10/10 |  | SIA (25-50 percent is slightly active (SIA)) |
| OC(c1ccc(Cl)cc1)(c1cccs1)C1CC1 (stereo not drawn) [compound 1] |  | 0/10 | 6/10 | 6/10 | 10/10 |  | SIA (25-50 percent is slightly active (SIA)) |
